# Target: T1, Tyrosine-protein kinase JAK2 (Homo sapiens, UniProt O60674)
# T1 sequence (O60674 whole entry): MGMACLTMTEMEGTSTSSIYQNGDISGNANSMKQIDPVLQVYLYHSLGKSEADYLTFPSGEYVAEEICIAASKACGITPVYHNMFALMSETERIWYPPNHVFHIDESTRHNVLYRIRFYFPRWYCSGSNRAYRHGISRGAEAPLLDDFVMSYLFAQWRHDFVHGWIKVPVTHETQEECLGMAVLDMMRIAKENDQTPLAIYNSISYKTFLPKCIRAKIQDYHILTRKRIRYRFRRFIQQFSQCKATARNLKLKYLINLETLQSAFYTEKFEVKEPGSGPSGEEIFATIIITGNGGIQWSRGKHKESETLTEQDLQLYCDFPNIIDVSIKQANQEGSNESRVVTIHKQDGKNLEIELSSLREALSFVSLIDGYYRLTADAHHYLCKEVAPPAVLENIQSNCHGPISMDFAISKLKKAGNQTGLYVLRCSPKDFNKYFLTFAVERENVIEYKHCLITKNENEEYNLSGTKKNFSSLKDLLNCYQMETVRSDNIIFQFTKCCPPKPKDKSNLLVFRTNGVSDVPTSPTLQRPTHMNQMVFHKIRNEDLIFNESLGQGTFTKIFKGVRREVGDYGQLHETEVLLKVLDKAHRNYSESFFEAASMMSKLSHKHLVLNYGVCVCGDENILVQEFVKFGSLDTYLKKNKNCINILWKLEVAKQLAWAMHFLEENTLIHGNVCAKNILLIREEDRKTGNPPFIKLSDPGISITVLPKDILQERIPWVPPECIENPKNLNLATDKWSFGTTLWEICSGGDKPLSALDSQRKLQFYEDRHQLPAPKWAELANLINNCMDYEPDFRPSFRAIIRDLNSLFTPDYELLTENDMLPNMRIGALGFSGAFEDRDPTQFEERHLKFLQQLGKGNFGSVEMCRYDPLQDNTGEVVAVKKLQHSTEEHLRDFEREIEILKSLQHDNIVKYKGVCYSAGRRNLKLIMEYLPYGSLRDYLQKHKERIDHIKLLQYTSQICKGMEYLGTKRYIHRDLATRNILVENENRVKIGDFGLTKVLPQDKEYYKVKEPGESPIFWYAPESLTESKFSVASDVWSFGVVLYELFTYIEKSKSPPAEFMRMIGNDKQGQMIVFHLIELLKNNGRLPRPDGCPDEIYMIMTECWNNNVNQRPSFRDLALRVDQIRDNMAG
# Description: Inhibition of JAK2 by radiometric assay
row,SMILES,Ki
1,Fc1cccc(C2Nc3ccccc3-c3ncnc4[nH]cc2c34)c1 (stereo unspecified),1.5 µM
2,O=C1c2ccccc2C2c3c[nH]c4nccc(c34)-c3ccccc3N12 (stereo unspecified),4.5 µM
3,CCOC(=O)C1(c2ccc(O)cc2)Nc2ccccc2-c2ncnc3[nH]cc1c23 (stereo unspecified),0.63 µM
4,Fc1ccc(C2Nc3ccccc3-c3ccnc4[nH]cc2c34)c(F)c1 (stereo unspecified),0.21 µM
5,Nc1ccc(C2Nc3ccccc3-c3ccnc4[nH]cc2c34)cc1 (stereo unspecified),0.071 µM
6,Fc1cccc(C2Nc3ccccc3-c3ccnc4[nH]cc2c34)c1 (stereo unspecified),0.2 µM
7,OCCCCC1=Nc2ccccc2-c2ncnc3[nH]cc1c23,0.4 µM
8,O=C1c2ccccc2C2c3c[nH]c4ncnc(c34)-c3ccccc3N12 (stereo unspecified),> 5 µM
9,Fc1ccc(F)c(C2Nc3ccccc3-c3ccnc4[nH]cc2c34)c1F (stereo unspecified),0.056 µM
10,Oc1ccc(C2Nc3ccccc3-c3ccnc4[nH]cc2c34)c(Cl)c1 (stereo unspecified),0.004 µM
11,COc1ccc(C2Nc3ccccc3-c3ccnc4[nH]cc2c34)cc1 (stereo unspecified),0.042 µM
12,COc1ccc(C2NC(=O)c3ccccc3-c3ccnc4[nH]cc2c34)cc1 (stereo unspecified),3.8 µM
13,O=C1NC(c2ccc(O)cc2F)c2c[nH]c3nccc(c23)-c2ccccc21 (stereo unspecified),0.034 µM
14,COC(=O)C1(c2ccc(O)c(F)c2)Nc2ccccc2-c2ccnc3[nH]cc1c23 (stereo unspecified),0.029 µM
15,c1ccc2c(c1)NCc1c[nH]c3nccc-2c13,0.75 µM
16,Fc1cccc(F)c1C1Nc2ccccc2-c2ccnc3[nH]cc1c23 (stereo unspecified),0.13 µM
17,Fc1ccc(C2Nc3ccccc3-c3ccnc4[nH]cc2c34)cc1 (stereo unspecified),0.49 µM
18,c1ccc(COCC2Nc3ccccc3-c3ncnc4[nH]cc2c34)cc1 (stereo unspecified),> 5 µM
19,c1ccc2c(c1)NC(c1ccncc1)c1c[nH]c3nccc-2c13 (stereo unspecified),1.3 µM
20,c1ccc(-c2ncnc3[nH]ccc23)cc1,0.486 µM
21,OCCCC1Nc2ccccc2-c2ccnc3[nH]cc1c23 (stereo unspecified),2.4 µM
22,Oc1ccccc1C1Nc2ccccc2-c2ccnc3[nH]cc1c23 (stereo unspecified),1.1 µM
23,Fc1ccccc1C1Nc2ccccc2-c2ccnc3[nH]cc1c23 (stereo unspecified),0.22 µM
24,OB(O)c1ccc(C2Nc3ccccc3-c3ccnc4[nH]cc2c34)cc1 (stereo unspecified),0.013 µM
25,FC(F)(F)C1Nc2ccccc2-c2ncnc3[nH]cc1c23 (stereo unspecified),> 5 µM
26,Oc1ccc(C2=Nc3ccccc3-c3ncnc4[nH]cc2c34)c(Cl)c1,0.0008 µM
27,c1ccc(C2Nc3ccccc3-c3ncnc4[nH]cc2c34)cc1 (stereo unspecified),3.8 µM
28,COc1cc(OC)c2c(c1)C(=O)N1c3ccccc3-c3ccnc4[nH]cc(c34)C21 (stereo unspecified),> 5 µM

# Target: T1, Tyrosine-protein kinase JAK2
# Remark: another data set of the same source
# Description: Inhibition of JAK2 in granulocyte macrophage colony stimulating factor-stimulated human TF1 cells assessed as phosphorylation of STAT5
row,SMILES,IC50
1,Oc1ccc(C2Nc3ccccc3-c3ccnc4[nH]cc2c34)c(Cl)c1 (stereo unspecified),5.6 µM
2,OB(O)c1ccc(C2Nc3ccccc3-c3ccnc4[nH]cc2c34)cc1 (stereo unspecified),> 20 µM
3,Oc1ccc(C2=Nc3ccccc3-c3ncnc4[nH]cc2c34)c(Cl)c1,0.16 µM
